Test results taken from US20240019450A1, “FLUORESCENT SENSORS” (THE UNIVERSITY OF SYDNEY, priority 2020, published 2024).

Experiments:
[1] = Fluorescence spectroscopy of the sensors (excitation and emission); type: physicochemical
Description: Fluorescence spectroscopy was performed on a bench top Perkin-Elmer Enspire Multimode Plate Reader. […] 5 replicates of each sensor-metal or sensor-complex solution were used. […] Fluorescence responses to analytes were determined using integrated emission intensity, and for each sensor a control well containing no analyte was included to normalise the response for analysis.
The sensors were tested using the procedure described in Example 4, and the obtained data was analysed using LDA. […] Sensors S1-S9 were used in subsequent experiments.

## O=C1c2ccccc2C2(c3ccc(O)cc3Oc3cc(O)ccc32)N1NC(=S)S [S1]
[1]
  excitation wavelength (maximum excitation wavelength of the sensor): 480 nm

## Cc1cc(=O)oc2c(CN(CC(=O)O)CC(=O)O)c(O)ccc12 [S5]
[1]
  excitation wavelength (maximum excitation wavelength of the sensor): 380 nm

## CCN(CC)c1ccc2c(c1)Oc1cc(N(CC)CC)ccc1C21c2ccccc2C(=O)N1OCc1cn(Cc2ccccc2)nn1 [S7]
[1]
  excitation wavelength (maximum excitation wavelength of the sensor): 445 nm

## O=[N+]([O-])c1ccc2c(/N=N/c3ccc4ccccc4c3O)c(O)cc(S(=O)(=O)[O-])c2c1.[Na+] [S8]
[1]
  excitation wavelength (maximum excitation wavelength of the sensor): 280 nm

## O=S(=O)([O-])c1cc(O)c(N=Nc2c(O)ccc3ccccc23)c2ccccc12.[Na+] [S9]
[1]
  excitation wavelength (maximum excitation wavelength of the sensor): 280 nm

## S=C(S)n1ncc2ccccc21 [formula X, 1H-indazole-1-carbodithioic acid]
other
  melting point: 220 °C

## S=C(S)C1=C(NCc2ccccc2)CCC1 [formula XIV, 2-(benzylamino)cyclopent-1-enecarbodithioic acid]
other
  melting point: 100 °C
